According to US20050154230A1, “Urea derivatives” (Bayer HealthCare AG, priority 2001, published 2005):
Like-named read-outs stand apart in the source and are kept apart here.

Tests used:
[1] = biological target: T1, human VR1 (Homo sapiens, UniProt Q8NER1); test: Capsaicin-induced Ca2+ influx in the human VR1-transfected CHO cell line (Assay 1); assay type: cell-based
T1 construct: expressed in transfected cells
Procedure: [Measurement of Capsaicin-Induced Ca^2+ Influx in the Human VR1-Transfected CHO Cell Line] (Assay 1)
(1) Establishment of the Human VR1-CHOluc9aeq Cell Line
The cloned hVR1 cDNA was constructed with pcDNA3 vector and transfected into a CHOluc9aeq cell line. The cell line contains aequorin and CRE-luciferase reporter genes as read-out signals. The transfectants were cloned by limiting dilution in selection medium (DMEM/F12 medium (Gibco BRL) supplemented with 10% FCS, 1.4 mM Sodium pyruvate, 20 mM HEPES, 0.15% Sodium bicarbonate, 100 U/ml penicillin, 100 μg/ml streptomycin, 2 mM glutamine, non-essential amino acids and 2 mg/ml G418). Ca^2+ influx was examined in the capsaicin-stimulated clones. […] The human VR1-CHOluc9aeq cells were maintained in the selection medium and passaged every 3-4 days at 1-2.5×10^5 cells/flask ([…]).
(2) Measurement of Ca^2+ Influx Using FDSS-3000
Human VR1-CHOluc9aeq cells were suspended in a culture medium which is the same as the selection medium except for G418 and seeded at a density of 1,000 cells per well into 384-well plates (black walled clear-base/Nalge Nunc International). […] After washing twice with assay buffer the cells were incubated with a test compound or vehicle for 20 min at 25° C. […] Integral R was calculated and compared with controls.

[2] = human VR1-CHOluc9aeq cells, 10 nM capsaicin, compound purity about 40 to 90%, read-out: hVR1 class

T1 sequence (Q8NER1 whole entry): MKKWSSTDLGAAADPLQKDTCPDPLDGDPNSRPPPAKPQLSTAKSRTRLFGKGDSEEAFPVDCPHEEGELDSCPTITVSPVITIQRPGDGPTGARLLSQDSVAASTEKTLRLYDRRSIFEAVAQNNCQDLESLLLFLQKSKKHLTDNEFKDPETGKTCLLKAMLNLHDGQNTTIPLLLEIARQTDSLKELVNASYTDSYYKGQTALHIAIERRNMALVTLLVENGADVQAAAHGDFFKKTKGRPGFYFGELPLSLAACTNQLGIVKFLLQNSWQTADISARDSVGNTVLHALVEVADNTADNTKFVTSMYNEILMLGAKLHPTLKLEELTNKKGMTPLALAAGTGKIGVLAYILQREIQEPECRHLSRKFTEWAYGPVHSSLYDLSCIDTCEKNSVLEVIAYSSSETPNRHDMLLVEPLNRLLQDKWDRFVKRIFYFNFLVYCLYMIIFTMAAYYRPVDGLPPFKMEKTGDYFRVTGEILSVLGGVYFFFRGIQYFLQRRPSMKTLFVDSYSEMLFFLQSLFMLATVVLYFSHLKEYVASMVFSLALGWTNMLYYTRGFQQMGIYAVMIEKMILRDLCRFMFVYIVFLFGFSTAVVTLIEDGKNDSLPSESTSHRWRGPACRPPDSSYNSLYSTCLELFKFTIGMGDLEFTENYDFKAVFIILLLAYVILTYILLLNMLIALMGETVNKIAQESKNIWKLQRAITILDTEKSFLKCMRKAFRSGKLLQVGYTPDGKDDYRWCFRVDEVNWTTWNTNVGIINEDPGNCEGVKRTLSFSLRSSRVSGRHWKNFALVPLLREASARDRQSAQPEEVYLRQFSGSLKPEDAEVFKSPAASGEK

CCOC(=O)c1cccc(-c2cccc(NC(=O)Nc3ccccc3CCO)c2)c1 [Example 226]
IC50 [1, 2]: < 100 nM
melting point: 133 °C

CSc1ccc(-c2cccc(NC(=O)Nc3ccccc3CCO)c2)cc1 [Example 206]
IC50 [1, 2]: < 100 nM
melting point: 191 °C

Cc1ccc(NC(=O)Nc2ccccc2CCO)cc1Cl [Example 148]
IC50 [1, 2]: 500 to 1000 nM
melting point: 195 to 196 °C

O=C(Nc1ccc(Cl)c(C(F)(F)F)c1)Nc1ccccc1CCO [Example 98]
IC50 [1, 2]: < 100 nM
melting point: 175 to 177 °C

O=C(Nc1ccc(-c2ccccc2)cc1)Nc1ccccc1CCO [Example 201]
IC50 [1, 2]: 100 to 500 nM
melting point: 194 °C

Cc1ccc(C)c(-c2cccc(NC(=O)Nc3ccccc3CCO)c2)c1 [Example 197]
IC50 [1, 2]: < 100 nM
melting point: 167 °C

Cc1ccc(Oc2ccc(NC(=O)Nc3ccccc3CCO)cc2)cc1 [Example 176]
IC50 [1, 2]: < 100 nM
melting point: 164 to 168 °C (dec.)

O=C(Nc1ccc(F)c(C(F)(F)F)c1)Nc1ccccc1CCO [Example 184]
IC50 [1, 2]: < 100 nM
melting point: 158 to 161 °C (dec.)

COc1cc(CNC(=O)Nc2c(C)cccc2C)ccc1O [Example 60]
IC50 [1, 2]: 500 to 1000 nM
melting point: 211 °C

CCOC(=O)c1cccc(NC(=O)Nc2ccccc2CCO)c1 [Example 100]
IC50 [1, 2]: 100 to 500 nM
melting point: 152 to 153 °C

COc1cc(CNC(=O)Nc2ccc(F)c([N+](=O)[O-])c2)ccc1O [Example 66]
IC50 [1]: 100 to 500 nM
melting point: 184 °C

O=C(Nc1cccc(-c2cc(F)ccc2F)c1)Nc1ccccc1CCO [Example 213]
IC50 [1, 2]: < 100 nM
melting point: 150 °C

O=C(Nc1ccc2[nH]ncc2c1)Nc1ccccc1CCO [Example 221]
IC50 [1, 2]: 500 to 1000 nM
melting point: 234 to 236 °C

O=C(Nc1cc(F)cc(F)c1)Nc1ccccc1CCO [Example 180]
IC50 [1, 2]: 100 to 500 nM
melting point: 188 to 189 °C

COc1cccc(OC)c1-c1cccc(NC(=O)Nc2ccccc2CCO)c1 [Example 231]
IC50 [1, 2]: 500 to 1000 nM
melting point: 180 to 181 °C

O=C(Nc1ccccc1CCO)Nc1ccccc1[N+](=O)[O-] [Example 147]
IC50 [1, 2]: 500 to 1000 nM
melting point: 112 to 114 °C

O=C(Nc1ccc(F)c(Cl)c1)Nc1ccccc1CCO [Example 190]
IC50 [1, 2]: 100 to 500 nM
melting point: 193 to 194 °C

COc1cc(CNC(=O)Nc2c(C)cc(C)cc2C)ccc1O [Example 72]
IC50 [1, 2]: 500 to 1000 nM
melting point: 217 °C

COc1cccc(-c2cccc(NC(=O)Nc3ccccc3CCO)c2)c1 [Example 242]
IC50 [1, 2]: < 100 nM
melting point: 163 °C

O=C(Nc1cccc(-c2cccc(F)c2)c1)Nc1ccccc1CCO [Example 211]
IC50 [1, 2]: < 100 nM
melting point: 188 °C

O=C(Nc1ccccc1CCO)Nc1cccc2ccccc12 [Example 149]
IC50 [1, 2]: 500 to 1000 nM
melting point: 188 to 191 °C (dec.)

COc1ccc(NC(=O)Nc2ccccc2CCO)cc1 [Example 136]
IC50 [1, 2]: 500 to 1000 nM
melting point: 186 °C

Cc1cccc(NC(=O)Nc2ccc(Cl)c(C(F)(F)F)c2)c1CCO [Example 256]
IC50 [1, 2]: < 100 nM
melting point: 201 °C

Cc1ccc(-c2cccc(NC(=O)Nc3ccccc3CCO)c2)cc1 [Example 200]
IC50 [1, 2]: < 100 nM
melting point: 178 °C

O=C(Nc1cccc(-c2ccc(Cl)c(F)c2)c1)Nc1ccccc1CCO [Example 249]
IC50 [1, 2]: < 100 nM
melting point: 180 °C

O=C(Nc1ccc(Cl)c(C(F)(F)F)c1)Nc1cccc(C(F)(F)F)c1CCO [Example 254]
IC50 [1, 2]: 100 to 500 nM
melting point: 201 °C

O=C(Nc1cccc(-c2ccc(Cl)cc2)c1)Nc1ccc(Cl)cc1CCO [Example 246]
IC50 [1, 2]: 500 to 1000 nM
melting point: 209 to 211 °C

COc1ccc(F)cc1-c1cccc(NC(=O)Nc2ccccc2CCO)c1 [Example 235]
IC50 [1, 2]: < 100 nM
melting point: 158 to 160 °C

O=C(Nc1ccc(Cl)cc1)Nc1ccccc1CCO [Example 106]
IC50 [1, 2]: 500 to 1000 nM
melting point: 185 to 187 °C

O=C(Nc1cccc(-c2ccccc2)c1)Nc1ccccc1CCO [Example 3-1, N-(1,1′-biphenyl-3-yl)-N′-[2-(2-hydroxyethyl)phenyl]urea]
IC50 ([1]; human VR1-CHOluc9aeq cells, 10 nM capsaicin, compound purity about 40 to 90%, read-out: Activity grade): < 100 nM
melting point: 196 to 198 °C

O=C(Nc1cccc(-c2ccc(OC(F)(F)F)cc2)c1)Nc1ccccc1CCO [Example 240]
IC50 [1, 2]: < 100 nM
melting point: 184 °C

O=C(Nc1ccc2ccccc2c1)Nc1ccccc1CCO [Example 102]
IC50 [1, 2]: 100 to 500 nM
melting point: 195 to 197 °C

O=C(Nc1ccc(Cl)c(C(F)(F)F)c1)Nc1cccc(Br)c1CCO [Example 255]
IC50 [1, 2]: < 100 nM
melting point: 209 °C

COc1cc(CNC(=O)Nc2ccc(Cl)c(C(F)(F)F)c2)ccc1O [Example 55]
IC50 [1, 2]: < 100 nM
melting point: 193 °C

O=C(Nc1ccc(Cl)c([N+](=O)[O-])c1)Nc1ccccc1CCO [Example 113]
IC50 [1, 2]: 100 to 500 nM
melting point: 170 °C

COc1ccc(-c2cccc(NC(=O)Nc3ccccc3CCO)c2)cc1 [Example 204]
IC50 [1, 2]: < 100 nM
melting point: 166 °C

O=C(Nc1ccc([N+](=O)[O-])cc1)Nc1ccccc1CCO [Example 110]
IC50 [1, 2]: 500 to 1000 nM
melting point: 178 °C

COc1ccc2c(c1)C(NC(=O)Nc1ccc(F)cc1)CCC2 (stereo not shown) [Example 53]
IC50 [1, 2]: 500 to 1000 nM
melting point: 177.5 °C

O=C(Nc1ccc(Oc2ccccc2)cc1)Nc1ccccc1CCO [Example 99]
IC50 [1, 2]: < 100 nM
melting point: 133 to 135 °C

O=C(Nc1cccc(-c2ccc(F)cc2F)c1)Nc1ccccc1CCO [Example 199]
IC50 [1, 2]: < 100 nM
melting point: 169 °C

O=C(Nc1ccc(-c2ccccc2)s1)Nc1ccccc1CCO [Example 243]
IC50 [1, 2]: < 100 nM
melting point: 159 °C

O=C(Nc1cccc(-c2ccc(F)c(Cl)c2)c1)Nc1ccccc1CCO [Example 215]
IC50 [1, 2]: < 100 nM
melting point: 176 °C

COc1cc(CNC(=O)Nc2ccccc2OC)ccc1O [Example 57]
IC50 [1, 2]: 500 to 1000 nM
melting point: 144 °C

Cc1cccc(NC(=O)NCc2ccc(C(F)(F)F)cc2)c1CCO [Example 258]
IC50 [1, 2]: < 100 nM
melting point: 213 °C

O=C(Nc1cccc(Oc2ccccc2)c1)Nc1ccccc1CCO [Example 171]
IC50 [1, 2]: < 100 nM
melting point: 145 to 146 °C

Cc1ccc(NC(=O)Nc2ccccc2CCO)c(C)c1 [Example 133]
IC50 [1, 2]: 500 to 1000 nM
melting point: 181 °C

COc1ccc(NC(=O)Nc2ccccc2CCO)c(OC)c1 [Example 150]
IC50 [1, 2]: 500 to 1000 nM
melting point: 189 to 190 °C

COc1cc(CNC(=O)Nc2cc([N+](=O)[O-])ccc2F)ccc1O [Example 65]
IC50 [1, 2]: 500 to 1000 nM
melting point: 208 °C

COc1ccc(Cl)cc1-c1cccc(NC(=O)Nc2ccccc2CCO)c1 [Example 228]
IC50 [1, 2]: < 100 nM
melting point: 126 to 129 °C

CCOC(=O)c1ccc(-c2cccc(NC(=O)Nc3ccccc3CCO)c2)cc1 [Example 225]
IC50 [1, 2]: < 100 nM
melting point: 196 °C

COc1cc(-c2cccc(NC(=O)Nc3ccccc3CCO)c2)cc(OC)c1OC [Example 237]
IC50 [1, 2]: 100 to 500 nM
melting point: 81 to 83 °C

COc1cc(CNC(=O)Nc2ccc(Cl)c(Cl)c2)ccc1O [Example 71]
IC50 [1, 2]: < 100 nM
melting point: 207 °C

N#Cc1ccc(-c2ccc(NC(=O)Nc3ccccc3CCO)cc2)cc1 [Example 161]
IC50 [1, 2]: 500 to 1000 nM
melting point: 213 to 215 °C

CC(=O)c1ccc(-c2cccc(NC(=O)Nc3ccccc3CCO)c2)cc1 [Example 224]
IC50 [1, 2]: < 100 nM
melting point: 205 °C

O=C(Nc1cc(C(F)(F)F)ccc1F)Nc1ccccc1CCO [Example 189]
IC50 [1, 2]: 500 to 1000 nM
melting point: 150 to 152 °C

O=C(Nc1cccc(OCc2ccccc2)c1)Nc1ccccc1CCO [Example 174]
IC50 [1, 2]: < 100 nM
melting point: 146 to 148 °C

CCn1c2ccccc2c2cc(NC(=O)Nc3ccccc3CCO)ccc21 [Example 172]
IC50 [1, 2]: < 100 nM
melting point: 224 to 226 °C

O=C(Nc1cccc(-c2cc(Cl)ccc2Cl)c1)Nc1ccccc1CCO [Example 209]
IC50 [1, 2]: < 100 nM
melting point: 142 °C

O=C(Nc1cccc(-c2cccc(Cl)c2)c1)Nc1ccccc1CCO [Example 195]
IC50 [1, 2]: < 100 nM
melting point: 175 °C

O=C(Nc1cccc(-c2ccccc2Cl)c1)Nc1ccccc1CCO [Example 196]
IC50 [1, 2]: < 100 nM
melting point: 153 °C

O=C(Nc1ccccc1CCO)Nc1ccccc1C(F)(F)F [Example 152]
IC50 [1, 2]: 500 to 1000 nM
melting point: 180 to 182 °C

O=C(Nc1cccc(-c2ccc(F)c(F)c2)c1)Nc1ccccc1CCO [Example 207]
IC50 [1, 2]: < 100 nM
melting point: 181 °C

COc1cc(CNC(=O)Nc2ccc(Cl)cc2)ccc1O [Example 83]
IC50 [1, 2]: < 100 nM
melting point: 210 °C

COc1cc2c(cc1O)CN(C(=O)Nc1ccc(Cl)c(C(F)(F)F)c1)CC2 [Example 78]
melting point: 130 °C
